Numbers after ± are expanded uncertainties.
Key:
[1] = 101 kPa, Liquid; for speed of sound: Linear variable-path acoustic interferometer
[2] = refractive index (Na D-line) (dimensionless); settings: 101.33 kPa, Liquid
[3] = xn = mol fraction of the nth substance listed; settings: 101 kPa, Liquid; for speed of sound: Linear variable-path acoustic interferometer
[4] = refractive index (Na D-line) (dimensionless); xn = mol fraction of the nth substance listed; settings: 101 kPa, Liquid

CC(C)CO [2-methyl-1-propanol]
Settings	mass density, 298.15 K [kg/m3]	mass density, 303.15 K [kg/m3]	mass density, 308.15 K [kg/m3]	refractive index, 298.15 K	refractive index, 303.15 K	refractive index, 308.15 K	speed of sound, 298.15 K [m/s]	viscosity, 298.15 K [mPa·s]	viscosity, 303.15 K [mPa·s]	viscosity, 308.15 K [mPa·s]
[1]	809.31 ± 8.1	805.23 ± 8.1	801.11 ± 8	–	–	–	1170 ± 4	3.097 ± 0.038	2.635 ± 0.032	2.249 ± 0.028
[2]	–	–	–	1.3932 ± 0.0013	1.3917 ± 0.0013	1.3896 ± 0.0013	–	–	–	–

CCCO [propan-1-ol]
Settings	mass density, 298.15 K [kg/m3]	mass density, 303.15 K [kg/m3]	mass density, 308.15 K [kg/m3]	refractive index, 298.15 K	refractive index, 303.15 K	refractive index, 308.15 K	speed of sound, 298.15 K [m/s]	viscosity, 298.15 K [mPa·s]	viscosity, 303.15 K [mPa·s]	viscosity, 308.15 K [mPa·s]
[1]	809.65 ± 8.1	805.5 ± 8.1	801.32 ± 8	–	–	–	1206 ± 4	2.077 ± 0.024	1.809 ± 0.022	1.595 ± 0.019
[2]	–	–	–	1.384 ± 0.0012	1.3819 ± 0.0012	1.38 ± 0.0012	–	–	–	–

CCO [ethanol]
Settings	mass density, 298.15 K [kg/m3]	mass density, 303.15 K [kg/m3]	mass density, 308.15 K [kg/m3]	refractive index, 298.15 K	refractive index, 303.15 K	refractive index, 308.15 K	speed of sound, 298.15 K [m/s]	viscosity, 298.15 K [mPa·s]	viscosity, 303.15 K [mPa·s]	viscosity, 308.15 K [mPa·s]
[1]	785.66 ± 7.9	781.34 ± 7.8	776.99 ± 7.8	–	–	–	1161 ± 4	1.083 ± 0.013	0.985 ± 0.012	0.8954 ± 0.011
[2]	–	–	–	1.3608 ± 0.0012	1.3589 ± 0.0012	1.3563 ± 0.0012	–	–	–	–

CC1CCCCC1 [methylcyclohexane]
Settings	mass density, 298.15 K [kg/m3]	mass density, 303.15 K [kg/m3]	mass density, 308.15 K [kg/m3]	refractive index, 298.15 K	refractive index, 303.15 K	refractive index, 308.15 K	speed of sound, 298.15 K [m/s]	viscosity, 298.15 K [mPa·s]	viscosity, 303.15 K [mPa·s]	viscosity, 308.15 K [mPa·s]
[1]	764.99 ± 7.7	760.66 ± 7.6	756.3 ± 7.6	–	–	–	1217 ± 4	0.6757 ± 0.0095	0.631 ± 0.0089	0.5902 ± 0.0085
[2]	–	–	–	1.4217 ± 0.0013	1.4192 ± 0.0013	1.4163 ± 0.0013	–	–	–	–

CC1CCCCC1 [methylcyclohexane] + CC(C)O
Settings	mass density, 298.15 K [kg/m3]	mass density, 303.15 K [kg/m3]	mass density, 308.15 K [kg/m3]	refractive index, 298.15 K	refractive index, 303.15 K	refractive index, 308.15 K	speed of sound, 298.15 K [m/s]	viscosity, 298.15 K [mPa·s]	viscosity, 303.15 K [mPa·s]	viscosity, 308.15 K [mPa·s]
[3], x1 = 0.1001	777.28 ± 7.8	772.86 ± 7.7	768.43 ± 7.7	–	–	–	1151 ± 4	1.634 ± 0.02	1.441 ± 0.017	1.248 ± 0.015
[3], x1 = 0.2033	774.39 ± 7.8	769.88 ± 7.7	765.38 ± 7.7	–	–	–	1159 ± 4	1.35 ± 0.017	1.197 ± 0.015	1.044 ± 0.013
[3], x1 = 0.3065	771.5 ± 7.7	766.95 ± 7.7	762.32 ± 7.6	–	–	–	1166 ± 4	1.117 ± 0.014	1.004 ± 0.013	0.8905 ± 0.011
[3], x1 = 0.4049	769.55 ± 7.7	764.95 ± 7.7	760.33 ± 7.6	–	–	–	1173 ± 4	0.9645 ± 0.012	0.8716 ± 0.011	0.7785 ± 0.01
[3], x1 = 0.5034	767.6 ± 7.7	763.01 ± 7.7	758.34 ± 7.6	–	–	–	1181 ± 4	0.8434 ± 0.011	0.7708 ± 0.01	0.698 ± 0.0095
[3], x1 = 0.6022	766.22 ± 7.7	761.62 ± 7.6	757 ± 7.6	–	–	–	1188 ± 4	0.7815 ± 0.01	0.7193 ± 0.0098	0.6573 ± 0.009
[3], x1 = 0.7009	765.17 ± 7.7	760.61 ± 7.6	756 ± 7.6	–	–	–	1195 ± 4	0.7197 ± 0.0098	0.6681 ± 0.0092	0.6167 ± 0.0086
[3], x1 = 0.8021	764.75 ± 7.7	760.25 ± 7.6	755.69 ± 7.6	–	–	–	1203 ± 4	0.703 ± 0.0097	0.6546 ± 0.0091	0.6061 ± 0.0085
[3], x1 = 0.9032	764.43 ± 7.7	759.88 ± 7.6	755.37 ± 7.6	–	–	–	1210 ± 4	0.6864 ± 0.0095	0.641 ± 0.009	0.5955 ± 0.0085
[3], x1 = 1	764.99 ± 7.7	760.66 ± 7.6	756.3 ± 7.6	–	–	–	1217 ± 4	0.6757 ± 0.0095	0.631 ± 0.0089	0.5902 ± 0.0085
[4], x1 = 0.1001	–	–	–	1.3822 ± 0.0012	1.3798 ± 0.0012	1.3775 ± 0.0012	–	–	–	–
[4], x1 = 0.2033	–	–	–	1.3879 ± 0.0012	1.3854 ± 0.0012	1.3829 ± 0.0012	–	–	–	–
[4], x1 = 0.3065	–	–	–	1.3936 ± 0.0012	1.3909 ± 0.0012	1.3883 ± 0.0012	–	–	–	–
[4], x1 = 0.4049	–	–	–	1.3983 ± 0.0012	1.3956 ± 0.0012	1.3928 ± 0.0012	–	–	–	–
[4], x1 = 0.5034	–	–	–	1.4029 ± 0.0012	1.4001 ± 0.0012	1.3973 ± 0.0012	–	–	–	–
[4], x1 = 0.6022	–	–	–	1.4068 ± 0.0013	1.404 ± 0.0013	1.4013 ± 0.0013	–	–	–	–
[4], x1 = 0.7009	–	–	–	1.4106 ± 0.0013	1.408 ± 0.0013	1.4053 ± 0.0013	–	–	–	–
[4], x1 = 0.8021	–	–	–	1.4145 ± 0.0013	1.4118 ± 0.0013	1.4092 ± 0.0013	–	–	–	–
[4], x1 = 0.9032	–	–	–	1.4184 ± 0.0013	1.4158 ± 0.0013	1.413 ± 0.0013	–	–	–	–
[4], x1 = 1	–	–	–	1.4217 ± 0.0013	1.4192 ± 0.0013	1.4163 ± 0.0013	–	–	–	–

CC(C)CCO [3-methylbutan-1-ol]
Settings	mass density, 298.15 K [kg/m3]	mass density, 303.15 K [kg/m3]	mass density, 308.15 K [kg/m3]	refractive index, 298.15 K	refractive index, 303.15 K	refractive index, 308.15 K	speed of sound, 298.15 K [m/s]	viscosity, 298.15 K [mPa·s]	viscosity, 303.15 K [mPa·s]	viscosity, 308.15 K [mPa·s]
[1]	820.17 ± 8.2	816.28 ± 8.2	812.34 ± 8.1	–	–	–	1259 ± 4	2.779 ± 0.034	2.258 ± 0.028	1.844 ± 0.023
[2]	–	–	–	1.4056 ± 0.0013	1.4034 ± 0.0013	1.4013 ± 0.0013	–	–	–	–

CC(C)O [propan-2-ol] + CC1CCCCC1
x2 = 0
Settings	mass density, 298.15 K [kg/m3]	mass density, 303.15 K [kg/m3]	mass density, 308.15 K [kg/m3]	refractive index, 298.15 K	refractive index, 303.15 K	refractive index, 308.15 K	speed of sound, 298.15 K [m/s]	viscosity, 298.15 K [mPa·s]	viscosity, 303.15 K [mPa·s]	viscosity, 308.15 K [mPa·s]
[3]	781.05 ± 7.8	776.79 ± 7.8	772.43 ± 7.7	–	–	–	1144 ± 4	2.076 ± 0.024	1.786 ± 0.021	1.532 ± 0.018
[4]	–	–	–	1.3765 ± 0.0012	1.3741 ± 0.0012	1.3716 ± 0.0012	–	–	–	–

CCCCO [butan-1-ol]
Settings	mass density, 298.15 K [kg/m3]	mass density, 303.15 K [kg/m3]	mass density, 308.15 K [kg/m3]	refractive index, 298.15 K	refractive index, 303.15 K	refractive index, 308.15 K	speed of sound, 298.15 K [m/s]	viscosity, 298.15 K [mPa·s]	viscosity, 303.15 K [mPa·s]	viscosity, 308.15 K [mPa·s]
[1]	808.49 ± 8.1	804.6 ± 8.1	800.67 ± 8	–	–	–	1268 ± 4	2.587 ± 0.032	2.254 ± 0.028	1.988 ± 0.025
[2]	–	–	–	1.3983 ± 0.0025	1.3959 ± 0.0025	1.394 ± 0.0025	–	–	–	–

CCCO [propan-1-ol] + CC1CCCCC1
x2 = 0
Settings	mass density, 298.15 K [kg/m3]	mass density, 303.15 K [kg/m3]	mass density, 308.15 K [kg/m3]	refractive index, 298.15 K	refractive index, 303.15 K	refractive index, 308.15 K	speed of sound, 298.15 K [m/s]	viscosity, 298.15 K [mPa·s]	viscosity, 303.15 K [mPa·s]	viscosity, 308.15 K [mPa·s]
[3]	809.65 ± 8.1	805.5 ± 8.1	801.32 ± 8	–	–	–	1206 ± 4	2.077 ± 0.024	1.809 ± 0.022	1.595 ± 0.019
[4]	–	–	–	1.384 ± 0.0012	1.3819 ± 0.0012	1.38 ± 0.0012	–	–	–	–

CC(C)O [propan-2-ol]
Settings	mass density, 298.15 K [kg/m3]	mass density, 303.15 K [kg/m3]	mass density, 308.15 K [kg/m3]	refractive index, 298.15 K	refractive index, 303.15 K	refractive index, 308.15 K	speed of sound, 298.15 K [m/s]	viscosity, 298.15 K [mPa·s]	viscosity, 303.15 K [mPa·s]	viscosity, 308.15 K [mPa·s]
[1]	781.05 ± 7.8	776.79 ± 7.8	772.43 ± 7.7	–	–	–	1144 ± 4	2.076 ± 0.024	1.786 ± 0.021	1.532 ± 0.018
[2]	–	–	–	1.3765 ± 0.0012	1.3741 ± 0.0012	1.3716 ± 0.0012	–	–	–	–

Source: the NIST ThermoML archive (doi:10.1016/j.jct.2005.06.011)
